For test [1], the target named is T1, Vasopressin V1a receptor (Homo sapiens, UniProt P37288). The experiment in a line: Antagonist activity at human vasopressin 1a receptor expressed in HEK293 cells assessed as inhibition of vasopressin induced IP1 accumulation pretreated for 30 mins measured 1 hr post Ab-Cryptate and IP1-d2 addition by HTRF assay. The format is functional, cell-based. (In TR-FRET formats the signal depends on donor and acceptor labels being close together.)

In test [2] the target is T1, Vasopressin V1a receptor. Put plainly: Agonist activity at human vasopressin 1a receptor expressed in HEK293 cells assessed as increase in IP1 accumulation preincubated for 1 hr followed by addition of Ab-Cryptate and IP1-d2 by HTRF assay. The class given is functional, cell-based.
Test [3] has as its target T2, Oxytocin receptor (Homo sapiens, UniProt P30559).
T2 sequence (P30559 whole entry): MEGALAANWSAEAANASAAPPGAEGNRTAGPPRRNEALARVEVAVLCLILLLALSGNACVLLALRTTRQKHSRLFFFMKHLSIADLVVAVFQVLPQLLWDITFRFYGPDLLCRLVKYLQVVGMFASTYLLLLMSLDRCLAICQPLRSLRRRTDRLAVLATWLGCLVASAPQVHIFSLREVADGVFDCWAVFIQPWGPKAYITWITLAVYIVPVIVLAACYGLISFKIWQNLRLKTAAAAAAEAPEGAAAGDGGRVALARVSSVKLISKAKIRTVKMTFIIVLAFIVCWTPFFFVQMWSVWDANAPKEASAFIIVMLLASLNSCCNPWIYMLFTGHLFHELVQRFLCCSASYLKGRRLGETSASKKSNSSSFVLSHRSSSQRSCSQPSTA
The experiment in a line: Antagonist activity at human oxytocin receptor expressed in HEK293 cells assessed as inhibition of oxytocin induced IP1 accumulation pretreated for 30 mins measured 1 hr post Ab-Cryptate and IP1-d2 addition by HTRF assay. The format is functional, cell-based.

Test [4] has as its target T2, Oxytocin receptor. The experiment in a line: Displacement of [3H]-oxytocin from human oxytocin receptor expressed in HEK293 cells after 90 mins by microbeta 2 microplate reader analysis. The format is cell-based.
For test [5], the target named is T2, Oxytocin receptor. Put plainly: Agonist activity at human oxytocin receptor expressed in HEK293 cells assessed as increase in IP1 accumulation preincubated for 1 hr followed by addition of Ab-Cryptate and IP1-d2 by HTRF assay. The class given is functional, cell-based.
Test [6] addresses T1, Vasopressin V1a receptor. The experiment in a line: Displacement of [3H]-vasopressin from human vasopressin 1a receptor expressed in HEK293 cells after 90 mins by microbeta 2 microplate-reader method. The format is cell-based.

SMILES strings stand for the structures.

T1 sequence (P37288 whole entry): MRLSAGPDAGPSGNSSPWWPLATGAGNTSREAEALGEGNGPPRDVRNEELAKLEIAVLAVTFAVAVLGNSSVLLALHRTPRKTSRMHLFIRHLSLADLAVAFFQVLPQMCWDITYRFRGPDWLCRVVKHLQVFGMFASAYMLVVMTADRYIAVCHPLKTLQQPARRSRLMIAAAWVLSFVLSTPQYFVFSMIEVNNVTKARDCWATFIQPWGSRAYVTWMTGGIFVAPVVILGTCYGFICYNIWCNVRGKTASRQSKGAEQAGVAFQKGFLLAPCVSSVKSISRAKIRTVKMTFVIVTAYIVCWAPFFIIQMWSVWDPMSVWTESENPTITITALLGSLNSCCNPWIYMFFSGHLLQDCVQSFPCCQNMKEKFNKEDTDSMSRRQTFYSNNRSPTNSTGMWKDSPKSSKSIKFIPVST

Consider `COc1cc(CN2CCN(CCCCCCC(=O)N3Cc4cnn(C)c4Nc4ccccc43)CC2)cc(OC)c1`, for which the IC50 in test [1] and in test [3] was over 10 µM each time. For the same compound, the EC50 in test [2] and in test [5] was over 10 µM each time. Also, the Ki in test [4] is over 10 µM; in test [6], 0.195 µM.
Take `Cn1ncc2c1Nc1ccccc1N(C(=O)CCCCCCN1CCN(Cc3cc(O)cc(O)c3)CC1)C2`: the half-maximal inhibitory concentration (IC50) in test [1] and in test [3] was over 10 µM throughout. In addition, the 50% effective concentration (EC50) in test [2] and in test [5] was over 10 µM each time. Further, the Ki in test [4] was over 10 µM; in test [6], 0.13 µM.
`COc1cc(CN2CCN(CCCCC(=O)N3Cc4cnn(C)c4Nc4ccccc43)CC2)cc(OC)c1`: the 50% inhibitory concentration (IC50) in test [1] and in test [3] was over 10 µM each time. Further, the EC50 in test [2] and in test [5] was over 10 µM throughout. Besides, the Ki in test [4] was over 10 µM; in test [6], 0.409 µM.
Regarding `Cn1ncc2c1Nc1ccccc1N(C(=O)CCCCCCCN1CCN(Cc3cc(O)cc(O)c3)CC1)C2`, the 50% inhibitory concentration (IC50) was 4.67 µM in test [1] and over 10 µM in test [3]. Further, the EC50 in test [2] and in test [5] was over 10 µM throughout. The Ki in test [4] was found to be 8.35 µM; in test [6] it was 0.064 µM.
For the compound `COc1cc(CN2CCN(C(=O)NCc3ccc(C(=O)N4Cc5cnn(C)c5Nc5ccccc54)cc3C)CC2)cc(OC)c1`, the figures for the 50% inhibitory concentration (IC50) in test [1] and in test [3] were 1.11 µM and 4.13 µM, respectively. The concentration giving a half-maximal response (EC50) in test [2] and in test [5] was over 10 µM each time. Moreover, the inhibition constant Ki in test [4] worked out at 0.801 µM; in test [6], 0.062 µM.
Consider `Cn1ncc2c1Nc1ccccc1N(C(=O)CCCCN1CCN(Cc3cc(O)cc(O)c3)CC1)C2`, for which the IC50 in test [1] and in test [3] was over 10 µM throughout. In addition, the EC50 in test [2] and in test [5] was over 10 µM throughout. Besides, the Ki in test [4] is over 10 µM; in test [6], 0.466 µM.
`COc1cc(CN2CCN(CCCCCC(=O)N3Cc4cnn(C)c4Nc4ccccc43)CC2)cc(OC)c1`: the IC50 in test [1] is 8.2 µM; in test [3], over 10 µM. Also, the concentration for a half-maximal effect (EC50) in test [2] and in test [5] was over 10 µM in each case. Besides, the results for the inhibition constant (Ki) in test [4] and in test [6] were 7.45 µM and 0.266 µM, respectively.
For `Cn1ncc2c1Nc1ccccc1N(C(=O)CCCCCN1CCN(Cc3cc(O)cc(O)c3)CC1)C2`, the IC50 in test [1] and in test [3] was over 10 µM throughout. Also, the 50% effective concentration (EC50) in test [2] and in test [5] was over 10 µM each time. Also, the inhibition constant (Ki) is over 10 µM in test [4] and 0.449 µM in test [6].
For the compound `COc1cc(CN2CCN(CCCCCCCC(=O)N3Cc4cnn(C)c4Nc4ccccc43)CC2)cc(OC)c1`, the IC50 in test [1] was 7.67 µM; in test [3], over 10 µM. Further, the concentration giving a half-maximal response (EC50) in test [2] and in test [5] was over 10 µM throughout. Also, the values for the Ki in test [4] and in test [6] were over 10 µM and 0.248 µM, respectively.

Broadly, the IC50 is the concentration that inhibits the measured activity by half. In general, EC50 refers to the concentration needed to bring the measured effect to its halfway point. The term Ki denotes a dissociation constant, usually derived from enzyme kinetics or from competition with a known ligand.

These data come from ChEMBL document CHEMBL3763073 (Eur J Med Chem, 2016).
